Measured values published in patent US9029337B2, “Modulation of factor 7 expression” (Isis Pharmaceuticals, Inc., priority 2007, dated 2015).
Strand notation (5' to 3'): a small letter for the sugar, then the base; units joined by * are phosphorothioate-linked, units joined directly phosphodiester-linked; [ ] holds rarer units or linkages, { } end groups; capitals alone tell only the bases. e = 2'-O-(2-methoxyethyl) (MOE); [5mC] = 5-methylcytosine; d = 2'-deoxy (DNA)

Tested on: human Factor 7 mRNA
Experiment: Antisense inhibition of human Factor 7 mRNA in HepB3 cells, 50 nM antisense oligonucleotide, lipofectin
Type: cell-based
Conditions: Table 6, 50 nM, lipofectin, approximately 24 hours
In short: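 Cells plated at 4,000 per well were transfected and harvested after approximately 24 hours of treatment. Transcript levels, measured with primer probe set RTS 2927, were normalised to total RNA by RIBOGREEN®. Values are percent inhibition relative to untreated control cells.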

Q: “422117 (antisense eG*eG*eA*eA*eG*dA*dA*dG*dG*dG*dA*d[5mC]*dG*dG*dA*eA*eG*eG*eT*eG) [compound 422117]” was tested. Which “% Inhibition” value did it give?
A: 1%

Q: “422118 (antisense e[5mC]*eG*eG*eA*eA*dG*dA*dA*dG*dG*dG*dA*d[5mC]*dG*dG*eA*eA*eG*eG*eT) [compound 422118]” was tested. Which “% Inhibition” value did it give?
A: 15%

Q: How did the “% Inhibition” value turn out when “422119 (antisense eG*e[5mC]*eG*eG*eA*dA*dG*dA*dA*dG*dG*dG*dA*d[5mC]*dG*eG*eA*eA*eG*eG) [compound 422119]” was run?
A: 39%

Q: With “422120 (antisense e[5mC]*eG*e[5mC]*eG*eG*dA*dA*dG*dA*dA*dG*dG*dG*dA*d[5mC]*eG*eG*eA*eA*eG) [compound 422120]” as the substance, how does the “% Inhibition” value read?
A: 40%

Q: With “422121 (antisense eG*e[5mC]*eG*e[5mC]*eG*dG*dA*dA*dG*dA*dA*dG*dG*dG*dA*e[5mC]*eG*eG*eA*eA) [compound 422121]” as the substance, how does the “% Inhibition” value read?
A: 43%

Q: With “422122 (antisense eA*eG*e[5mC]*eG*e[5mC]*dG*dG*dA*dA*dG*dA*dA*dG*dG*dG*eA*e[5mC]*eG*eG*eA) [compound 422122]” as the substance, how does the “% Inhibition” value read?
A: 24%

Q: For “422123 (antisense eG*eA*eG*e[5mC]*eG*d[5mC]*dG*dG*dA*dA*dG*dA*dA*dG*dG*eG*eA*e[5mC]*eG*eG) [compound 422123]”, which “% Inhibition” value is on record?
A: 16%

Q: “422124 (antisense eT*eG*eA*eG*e[5mC]*dG*d[5mC]*dG*dG*dA*dA*dG*dA*dA*dG*eG*eG*eA*e[5mC]*eG) [compound 422124]” was tested. Which “% Inhibition” value did it give?
A: 0%

Q: “422125 (antisense e[5mC]*eT*eG*eA*eG*d[5mC]*dG*d[5mC]*dG*dG*dA*dA*dG*dA*dA*eG*eG*eG*eA*e[5mC]) [compound 422125]” was tested. Which “% Inhibition” value did it give?
A: 8%

Q: For “422126 (antisense eA*e[5mC]*eT*eG*eA*dG*d[5mC]*dG*d[5mC]*dG*dG*dA*dA*dG*dA*eA*eG*eG*eG*eA) [compound 422126]”, which “% Inhibition” value is on record?
A: 22%

Q: “422127 (antisense eT*eA*e[5mC]*eT*eG*dA*dG*d[5mC]*dG*d[5mC]*dG*dG*dA*dA*dG*eA*eA*eG*eG*eG) [compound 422127]” was tested. Which “% Inhibition” value did it give?
A: 17%

Q: How did the “% Inhibition” value turn out when “422128 (antisense eT*eT*eA*e[5mC]*eT*dG*dA*dG*d[5mC]*dG*d[5mC]*dG*dG*dA*dA*eG*eA*eA*eG*eG) [compound 422128]” was run?
A: 27%

Q: How did the “% Inhibition” value turn out when “422129 (antisense eG*eT*eT*eA*e[5mC]*dT*dG*dA*dG*d[5mC]*dG*d[5mC]*dG*dG*dA*eA*eG*eA*eA*eG) [compound 422129]” was run?
A: 45%

Same assay, conditions: Table 13 (microwalk), 50 nM, lipofectin, approximately 24 hours

Q: Which “% Inhibition” value does the source give for “422149 (antisense e[5mC]*eA*eT*dG*dG*dT*dG*dA*dT*dG*d[5mC]*dT*dT*d[5mC]*dT*dG*dA*eA*eT*eT) [compound 422149]” here?
A: 61%

Q: “422151 (antisense eT*eG*e[5mC]*dA*dT*dG*dG*dT*dG*dA*dT*dG*d[5mC]*dT*dT*d[5mC]*dT*eG*eA*eA) [compound 422151]” was tested. Which “% Inhibition” value did it give?
A: 68%

Q: How did the “% Inhibition” value turn out when “422153 (antisense e[5mC]*eA*eT*dG*d[5mC]*dA*dT*dG*dG*dT*dG*dA*dT*dG*d[5mC]*dT*dT*e[5mC]*eT*eG) [compound 422153]” was run?
A: 67%

Same assay, conditions: gapmers targeted to nucleobases 4868 to 4899 of SEQ ID NO: 1, Table 8

Q: Which “% Inhibition of human Factor 7 mRNA levels” value does the source give for “422138 (antisense eT*e[5mC]*eT*eG*e[5mC]*dA*dG*dG*dA*dG*d[5mC]*dG*dG*d[5mC]*d[5mC]*eT*eA*eA*eA*eT) [compound 422138]” here?
A: 70%

Q: For “422139 (antisense eT*eT*e[5mC]*eT*eG*d[5mC]*dA*dG*dG*dA*dG*d[5mC]*dG*dG*d[5mC]*e[5mC]*eT*eA*eA*eA) [compound 422139]”, which “% Inhibition of human Factor 7 mRNA levels” value is on record?
A: 66%

Q: How did the “% Inhibition of human Factor 7 mRNA levels” value turn out when “422141 (antisense eA*eG*eT*eT*e[5mC]*dT*dG*d[5mC]*dA*dG*dG*dA*dG*d[5mC]*dG*eG*e[5mC]*e[5mC]*eT*eA) [compound 422141]” was run?
A: 64%

Q: Which “% Inhibition of human Factor 7 mRNA levels” value does the source give for “422143 (antisense e[5mC]*e[5mC]*eG*eA*eG*dT*dT*d[5mC]*dT*dG*d[5mC]*dA*dG*dG*dA*eG*e[5mC]*eG*eG*e[5mC]) [compound 422143]” here?
A: 70%

Q: For “422144 (antisense e[5mC]*e[5mC]*e[5mC]*eG*eA*dG*dT*dT*d[5mC]*dT*dG*d[5mC]*dA*dG*dG*eA*eG*e[5mC]*eG*eG) [compound 422144]”, which “% Inhibition of human Factor 7 mRNA levels” value is on record?
A: 58%

Q: With “422145 (antisense eG*e[5mC]*e[5mC]*e[5mC]*eG*dA*dG*dT*dT*d[5mC]*dT*dG*d[5mC]*dA*dG*eG*eA*eG*e[5mC]*eG) [compound 422145]” as the substance, how does the “% Inhibition of human Factor 7 mRNA levels” value read?
A: 57%

Q: With “422146 (antisense eA*eG*e[5mC]*e[5mC]*e[5mC]*dG*dA*dG*dT*dT*d[5mC]*dT*dG*d[5mC]*dA*eG*eG*eA*eG*e[5mC]) [compound 422146]” as the substance, how does the “% Inhibition of human Factor 7 mRNA levels” value read?
A: 58%

Q: How did the “% Inhibition of human Factor 7 mRNA levels” value turn out when “422147 (antisense eG*eA*eG*e[5mC]*e[5mC]*d[5mC]*dG*dA*dG*dT*dT*d[5mC]*dT*dG*d[5mC]*eA*eG*eG*eA*eG) [compound 422147]” was run?
A: 64%

Q: How did the “% Inhibition of human Factor 7 mRNA levels” value turn out when “422148 (antisense eG*eG*eA*eG*e[5mC]*d[5mC]*d[5mC]*dG*dA*dG*dT*dT*d[5mC]*dT*dG*e[5mC]*eA*eG*eG*eA) [compound 422148]” was run?
A: 57%

Same assay, conditions: oligonucleotides targeted to nucleobases 11830 to 11869 of SEQ ID NO: 1 (Table 9)

Q: How did the “% Inhibition (human Factor 7 mRNA levels)” value turn out when “422154 (antisense eT*e[5mC]*eA*dG*dG*dG*d[5mC]*dT*dG*dG*dT*dT*dT*dT*dG*dG*dA*eG*eG*eA) [compound 422154]” was run?
A: 31%

Q: “422155 (antisense eG*eT*e[5mC]*dA*dG*dG*dG*d[5mC]*dT*dG*dG*dT*dT*dT*dT*dG*dG*eA*eG*eG) [compound 422155]” was tested. Which “% Inhibition (human Factor 7 mRNA levels)” value did it give?
A: 34%

Q: “422156 (antisense eG*eG*eT*d[5mC]*dA*dG*dG*dG*d[5mC]*dT*dG*dG*dT*dT*dT*dT*dG*eG*eA*eG) [compound 422156]” was tested. Which “% Inhibition (human Factor 7 mRNA levels)” value did it give?
A: 38%

Q: Which “% Inhibition (human Factor 7 mRNA levels)” value does the source give for “422157 (antisense eT*eG*eG*dT*d[5mC]*dA*dG*dG*dG*d[5mC]*dT*dG*dG*dT*dT*dT*dT*eG*eG*eA) [compound 422157]” here?
A: 49%

Q: For “422158 (antisense eA*eT*eG*dG*dT*d[5mC]*dA*dG*dG*dG*d[5mC]*dT*dG*dG*dT*dT*dT*eT*eG*eG) [compound 422158]”, which “% Inhibition (human Factor 7 mRNA levels)” value is on record?
A: 49%

Same assay, conditions: oligonucleotides targeted to nucleobases 13760 to 13789 of SEQ ID NO: 1 (Table 10)

Q: “422111 (antisense e[5mC]*eA*e[5mC]*e[5mC]*e[5mC]*dG*d[5mC]*d[5mC]*dG*dG*d[5mC]*dT*d[5mC]*dT*dG*e[5mC]*eT*e[5mC]*eA*eT) [compound 422111]” was tested. Which “% Inhibition (human Factor 7 mRNA levels)” value did it give?
A: 37%

Q: How did the “% Inhibition (human Factor 7 mRNA levels)” value turn out when “422112 (antisense e[5mC]*e[5mC]*eA*e[5mC]*e[5mC]*d[5mC]*dG*d[5mC]*d[5mC]*dG*dG*d[5mC]*dT*d[5mC]*dT*eG*e[5mC]*eT*e[5mC]*eA) [compound 422112]” was run?
A: 61%

Q: How did the “% Inhibition (human Factor 7 mRNA levels)” value turn out when “422113 (antisense eG*e[5mC]*e[5mC]*eA*e[5mC]*d[5mC]*d[5mC]*dG*d[5mC]*d[5mC]*dG*dG*d[5mC]*dT*d[5mC]*eT*eG*e[5mC]*eT*e[5mC]) [compound 422113]” was run?
A: 68%

Q: For “422114 (antisense e[5mC]*eG*e[5mC]*e[5mC]*eA*d[5mC]*d[5mC]*d[5mC]*dG*d[5mC]*d[5mC]*dG*dG*d[5mC]*dT*e[5mC]*eT*eG*e[5mC]*eT) [compound 422114]”, which “% Inhibition (human Factor 7 mRNA levels)” value is on record?
A: 50%

Q: With “422115 (antisense eG*e[5mC]*eG*e[5mC]*e[5mC]*dA*d[5mC]*d[5mC]*d[5mC]*dG*d[5mC]*d[5mC]*dG*dG*d[5mC]*eT*e[5mC]*eT*eG*e[5mC]) [compound 422115]” as the substance, how does the “% Inhibition (human Factor 7 mRNA levels)” value read?
A: 66%

Q: How did the “% Inhibition (human Factor 7 mRNA levels)” value turn out when “422116 (antisense eT*eG*e[5mC]*eG*e[5mC]*d[5mC]*dA*d[5mC]*d[5mC]*d[5mC]*dG*d[5mC]*d[5mC]*dG*dG*e[5mC]*eT*e[5mC]*eT*eG) [compound 422116]” was run?
A: 52%

Same assay, conditions: oligonucleotides targeted to nucleobases 14707 to 14732 of SEQ ID NO: 1 (Table 11)

Q: “422131 (antisense eA*eG*e[5mC]*e[5mC]*eT*dG*dA*dG*dG*d[5mC]*d[5mC]*dA*dG*d[5mC]*dA*eG*eA*eT*e[5mC]*eA) [compound 422131]” was tested. Which “% Inhibition (human Factor 7 mRNA levels)” value did it give?
A: 68%

Q: With “422132 (antisense eG*e[5mC]*eA*eG*e[5mC]*d[5mC]*dT*dG*dA*dG*dG*d[5mC]*d[5mC]*dA*dG*e[5mC]*eA*eG*eA*eT) [compound 422132]” as the substance, how does the “% Inhibition (human Factor 7 mRNA levels)” value read?
A: 54%

Q: How did the “% Inhibition (human Factor 7 mRNA levels)” value turn out when “422133 (antisense eA*eG*e[5mC]*eA*eG*d[5mC]*d[5mC]*dT*dG*dA*dG*dG*d[5mC]*d[5mC]*dA*eG*e[5mC]*eA*eG*eA) [compound 422133]” was run?
A: 65%

Same assay, conditions: oligonucleotides targeted to nucleobases 15098 to 15122 of SEQ ID NO: 1 (Table 12)

Q: For “422134 (antisense eG*e[5mC]*eA*e[5mC]*eA*d[5mC]*dA*dT*dG*dG*dA*dG*dT*d[5mC]*dA*eG*e[5mC]*eA*eT*e[5mC]) [compound 422134]”, which “% Inhibition (human Factor 7 mRNA levels)” value is on record?
A: 67%

Q: With “422135 (antisense eA*eG*e[5mC]*eA*e[5mC]*dA*d[5mC]*dA*dT*dG*dG*dA*dG*dT*d[5mC]*eA*eG*e[5mC]*eA*eT) [compound 422135]” as the substance, how does the “% Inhibition (human Factor 7 mRNA levels)” value read?
A: 53%

Q: With “422136 (antisense e[5mC]*eA*eG*e[5mC]*eA*d[5mC]*dA*d[5mC]*dA*dT*dG*dG*dA*dG*dT*e[5mC]*eA*eG*e[5mC]*eA) [compound 422136]” as the substance, how does the “% Inhibition (human Factor 7 mRNA levels)” value read?
A: 57%

Q: How did the “% Inhibition (human Factor 7 mRNA levels)” value turn out when “422137 (antisense eA*e[5mC]*eA*eG*e[5mC]*dA*d[5mC]*dA*d[5mC]*dA*dT*dG*dG*dA*dG*eT*e[5mC]*eA*eG*e[5mC]) [compound 422137]” was run?
A: 45%
